From patent publication US7910622B2, “Modulation of bacterial quorum sensing with synthetic ligands” (Wisconsin Alumni Research Foundation, priority 2007, dated 2011)

Key:
Assay in all cases: cell-based
LuxR [1] = biological target: T1, LuxR (Aliivibrio fischeri, UniProt P35327); design: species or system Vibrio fischeri; conditions: V. fischeri ES114 (Δ-luxI), normalized to OHHL; for V. fischeri-LuxR Activation [%]: 200 μM ligand; for activation at 200 µM: read-out: V. fischeri-LuxR Activation [%], 200 μM ligand
T1 construct: a Δ-luxI derivative of V. fischeri ES114, in which the native lux operon behaves as the bioluminescent reporter; endogenous in cells; host or cells: V. fischeri ES114 (Δ-luxI)
T1 sequence (P35327 whole entry): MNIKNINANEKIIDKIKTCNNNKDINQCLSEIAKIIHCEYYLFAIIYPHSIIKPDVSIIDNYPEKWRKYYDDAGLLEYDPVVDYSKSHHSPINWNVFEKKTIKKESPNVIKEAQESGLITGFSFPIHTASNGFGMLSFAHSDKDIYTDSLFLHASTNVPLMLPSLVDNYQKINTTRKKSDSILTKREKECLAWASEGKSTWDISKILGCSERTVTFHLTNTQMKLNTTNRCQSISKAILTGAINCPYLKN
Description: (§1) Luminescence assays. For agonism assays, an appropriate amount of AHL stock solution was added into a 96-well plate. An overnight culture of E. coli or V. fischeri was diluted 1:10 with appropriate media (LB plus 10 μg/mL tetracycline for E. coli; LBS for V. fischeri). A 200-μL portion of the diluted culture was added to each well of the plate. Plates were grown for 4-8 h with shaking (200 rpm; 30° C. for E. coli and RT for V. fischeri). Luminescence was measured using a multilabel plate reader and normalized to cell density. […] All assays were performed in triplicate. Graphpad Prism software was used to calculate IC50 and EC50 values.
(§2) Vibrio fischeri assay procedures. […] An overnight culture of V. fischeri ES114 (WT, Δ-luxI or Δ-luxR) was diluted 1:10 with LBS medium. A-200 μL portion of the diluted culture was added to each well of the plate. Plates were grown at RT with shaking (200 rpm) until the OD600=0.35-0.4 (4-6 h). Luminescence then was measured and normalized to cell density per well. […] All assays were performed in triplicate. IC50 and EC50 values were calculated using GraphPad Prism software using a sigmoidal curve fit.
(§3) V. fischeri reporter gene assay protocols. […] An overnight culture of V. fischeri ES114 (D-luxI) was diluted 1:10 with LBS medium. A 200-μL portion of the diluted culture was added to each well of the multititer plate. Plates were grown at RT with shaking (200 rpm) until the OD600=0.35-0.4 (4-6 h). Luminescence then was measured and normalized to cell density per well.
(§4) Dose response reporter gene assays. […] IC50 and EC50 values were calculated using GraphPad Prism software (v. 4.0) using a sigmoidal curve fit.
as §3, with “(Δ-luxI)” for “(D-luxI)”, “A200 μL” for “A 200-μL”, “incubated” for “grown”, “RT” for “RT with shaking (200 rpm)”
as §4

LasR [2] = biological target: T2, LasR (Pseudomonas aeruginosa, UniProt P25084); conditions: for E. coli-LasR Activation [%]: 5 μM ligand; for E. coli-LasR Activation [%] / activation at 5 µM: E. coli DH5α (pJN105L pSC11), normalized to OdDHL; for EC50: read-out: LasR EC50; for activation at 5 µM: read-out: E. coli-LasR Activation [%], 5 μM ligand
T2 construct: expressed in transfected cells; host or cells: E. coli DH5α (pJN105L pSC11), arabinose-induced
T2 sequence (P25084 whole entry): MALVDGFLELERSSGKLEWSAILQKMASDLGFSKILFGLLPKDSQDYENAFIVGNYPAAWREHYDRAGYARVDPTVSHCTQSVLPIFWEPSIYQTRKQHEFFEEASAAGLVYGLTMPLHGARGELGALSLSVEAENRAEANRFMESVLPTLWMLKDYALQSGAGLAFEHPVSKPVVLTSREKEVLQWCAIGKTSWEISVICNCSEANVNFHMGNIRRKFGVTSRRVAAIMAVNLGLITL
Description: (§5) E. coli LasR reporter gene assay protocols. […] An overnight culture of E. coli DH5a (pJN105L pSC11) grown at 37° C. was subculture by diluting 1/10 in fresh LB medium containing 100 μg/mL ampicillin and 15 μg/mL gentamicin and shaking at 37° C. until OD600=0.3. Arabinose (4 mg/mL) was then added to induce the LasR promoter and a 200 μL-portion of this culture was added to each well of the multititer plate containing AHLs. Plates were grown at 37° C. for 2 hours in a rotary shaking incubator (200 rpm; OD600=0.45). The cultures were then assayed for activity following the identical β-galactosidase assay protocols used in the A. tumefaciens reporter gene assays.
as §4
(§6) E. coli LasR reporter gene assay protocols. […] An overnight culture of E. coli DH5α (pJN105L pSC11) was diluted 1:10 with fresh LB medium containing 100 μg/mL ampicillin and 15 μg/mL gentamicin. This sub-culture was incubated at 37° C. until OD600=0.3 (4-6 h). Arabinose (4 mg/mL) was then added to induce the LasR promoter, and a 200 μL portion of this culture was added to each well of the multititer plate containing AHLs. Plates were incubated at 37° C. until OD600=0.45 (4-6 h). The cultures were then assayed for LasR activity following the identical β-galactosidase assay protocols used in the A. tumefaciens reporter gene assays (see above).
as §4

LasR [3] = biological target: T2, LasR; format: cell-based; conditions: E. coli DH5α (pJN105L pSC11), normalized to OdDHL; for E. coli-LasR Inhibition [%]: 5 μM synthetic ligand against 7.5 nM OdDHL; for inhibition at 5 µM: read-out: E. coli-LasR Inhibition [%], 5 μM synthetic ligand against 7.5 nM OdDHL
Description: as §5, §4, §6, §4

LuxR [4] = biological target: T1, LuxR; format: cell-based, Vibrio fischeri; conditions: for V. fischeri-LuxR Inhibition [%]: 5 μM synthetic ligand against 5 μM OHHL
Description: as §1, §2, §3, §4
as §3, with “(Δ-luxI)” for “(D-luxI)”, “A200 μL” for “A 200-μL”, “incubated” for “grown”, “RT” for “RT with shaking (200 rpm)”
as §4

TraR = biological target: T3, TraR (Agrobacterium tumefaciens, UniProt P33905); conditions: for A. tumefaciens-TraR Activation [%]: 10 μM ligand; for A. tumefaciens-TraR Activation [%] / A. tumefaciens-TraR Inhibition [%] / inhibition at 10 µM: A. tumefaciens WCF47 (pCF372), normalized to OOHL; for A. tumefaciens-TraR Inhibition [%]: 10 μM synthetic ligand against 100 nM OOHL; for activation at 10 µM: read-out: A. tumefaciens-TraR Activation [%]; for inhibition at 10 µM: read-out: A. tumefaciens-TraR Inhibition [%], 10 μM synthetic ligand against 100 nM OOHL
T3 construct: These strains lack their AHL synthase (I) genes, but retain their native R genes; endogenous in cells; host or cells: A. tumefaciens WCF47 (Δ-traI) with PtraI-lacZ plasmid pCF372
T3 sequence (P33905 whole entry): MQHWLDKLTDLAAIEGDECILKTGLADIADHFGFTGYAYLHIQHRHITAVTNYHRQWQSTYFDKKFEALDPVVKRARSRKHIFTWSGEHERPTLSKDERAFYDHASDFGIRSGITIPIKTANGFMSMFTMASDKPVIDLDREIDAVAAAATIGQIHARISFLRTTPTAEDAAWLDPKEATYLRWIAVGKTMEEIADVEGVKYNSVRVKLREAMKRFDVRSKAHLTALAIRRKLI
Description: A. tumefaciens reporter gene assay protocols. […] An overnight culture of A. tumefaciens WCF47 (pCF372) was diluted to an OD600 of 0.1 in fresh AB minimal medium containing 400 μg/mL octopine and 50 μg/mL streptomycin. A 200 μL-portion of the diluted culture was added to each well of the multititer plate containing AHLs. Plates were grown at 28° C. for 18-20 h in a rotary shaking incubator (200 rpm). The cultures were then assayed for β-galactosidase activity following the Miller assay method. Briefly, 200 μL aliquots of bacteria from each of the wells were added to wells of a polystyrene 96-well plate and the OD600 of each well was recorded. Next, 50 μL aliquots from each well were transferred to a solvent resistant 96-well plate containing 200 μL Z buffer, 8 μL CHCl3 and 4 μL 0.1% aq. sodium dodecylsulfate (SDS). This suspension was mixed via repetitive pipetting, after which the CHCl3 was allowed to settle. A 100-μL aliquot from each well was transferred to a fresh polystyrene 96-well plate, and 20 μL of substrate, o-nitrophenyl-β-D-galactopyranoside (ONPG, 4 μg/mL in phosphate buffer), was added at time zero. After the development of appropriate yellow color (ca. 15-35 min), the reaction was terminated by the addition of 50 μL of 1 M Na2CO3. Absorbance at 420 nm and 550 nm was measured for each well using a plate reader, and Miller units were calculated according to standard methods.
as §4
A. tumefaciens reporter gene assay protocols. […] An overnight culture of A. tumefaciens WCF47 (pCF372) was diluted 1:10 with fresh AB minimal medium containing 400 μg/mL octopine and 50 μg/mL streptomycin. A 200 μL portion of the diluted culture was added to each well of the multititer plate containing AHLs. Plates were incubated at 28° C. for 18-24 h. The cultures were then assayed for β-galactosidase activity following the Miller assay method. Briefly, 200 μL aliquots of bacteria from each of the wells were added to wells of a 96-well multititer plate, and the OD600 of each well was recorded. Next, 50 μL aliquots from each well were transferred to a solvent resistant 96-well multititer plate containing 200 μL Z buffer, 8 μL CHCl3 and 4 μL 0.1% aq. SDS. This suspension was mixed via repetitive pipetting, after which the CHCl3 was allowed to settle. A 100 μL aliquot from each well was transferred to a fresh 96-well multititer plate, and 20 μL of substrate, o-nitrophenyl-β-D-galactopyranoside (ONPG, 4 μg/mL in phosphate buffer), was added at time zero. After the development of appropriate yellow color (ca. 20-30 min), the reaction was terminated by the addition of 50 μL of 1 M Na2CO3. Absorbances at 420 nm and 550 nm were measured for each well using a plate reader, and Miller units were calculated according to standard methods.
as §4

[5] = V. fischeri ES114 (Δ-luxI), normalized to OHHL

| Compound | V. fischeri-LuxR Activation [%] (LuxR [1]) | E. coli-LasR Activation [%] (LasR [2]) | E. coli-LasR Inhibition [%] (LasR [3]) | V. fischeri-LuxR Inhibition [%] (LuxR [4]; [5]) | A. tumefaciens-TraR Activation [%] (TraR) | A. tumefaciens-TraR Inhibition [%] (TraR) | EC50 (LasR [2]) | LasR: maximum induction value achievable (value in parentheses) (LasR [2]; at 200 μM ligand, relative to natural ligand) | activation at 200 µM (LuxR [1]) | activation at 5 µM (LasR [2]) | inhibition at 5 µM (LasR [3]) | inhibition at 5 µM (LuxR [4]; read-out: V. fischeri-LuxR Inhibition [%], 5 μM synthetic ligand against 5 μM OHHL, V. fischeri ES114 (Δ-luxI), normalized to OHHL) | IC50 (TraR) | activation at 10 µM (TraR) | inhibition at 10 µM (TraR) | IC50 (LuxR [4]; determined against 5 μM OHHL, read-out: LuxR IC50) |
| --- | --- | --- | --- | --- | --- | --- | --- | --- | --- | --- | --- | --- | --- | --- | --- | --- |
| O=C(CC1CCCC1)N[C@H]1CCOC1=O [B12] | 3% | 0% | 19% | 57% | 0% | 11% | – | – | – | – | – | – | – | – | – | – |
| 4-N-tertbutoxycarbonyl-PHL [B25] | 2% | 27% | 10% | 33% | 0% | 11% | > 200000 nM | – | – | – | – | – | – | – | – | – |
| O=C(Cc1c(F)c(F)c(F)c(F)c1F)N[C@H]1CCOC1=O [B19, pentafluoroaromatic PHL] | 2% | 2% | 19% | 40% | 0% | 2% | – | – | – | – | – | – | – | – | – | – |
| O=C(CCC(=O)OC(C(=O)c1ccccc1)c1ccccc1)N[C@H]1CCOC1=O (some centres unmarked) [D19] | 1% | 7% | 17% | 30% | 0% | 11% | – | – | – | – | – | – | – | – | – | – |
| COc1ccccc1C1CCN(c2ccc(C=CC(=O)NC3CCOC3=O)cc2[N+](=O)[O-])CC1 (centres unmarked) [D18] | 2% | 32% | 34% | 19% | 0% | 16% | 470 nM | 32% | – | – | – | – | – | – | – | – |
| O=C(NC1CCOC1=O)c1ccc(N=Nc2ccccc2)cc1 (centres unmarked) [D20] | 2% | 0% | 12% | 46% | 0% | 4% | – | – | – | – | – | – | – | – | – | – |
| 4-amino PHL [B26] | 3% | 0% | 8% | 12% | 0% | 5% | – | – | – | – | – | – | – | – | – | – |
| O=C(Cc1ccccc1[N+](=O)[O-])N[C@H]1CCOC1=O [B18] | 4% | 0% | 17% | 23% | 0% | 1% | – | – | – | – | – | – | – | – | – | – |
| O=C(Cc1ccc(N=Nc2ccccc2)cc1)NC1CCOC1=O (centres unmarked) [B22] | 3% | 1% | 13% | 63% | 0% | 9% | – | – | – | – | – | – | – | – | – | – |
| 4-methyl PHL [B24] | 1% | 0% | 11% | 58% | 3% | 21% | – | – | – | – | – | – | – | – | – | – |
| COc1ccc(CC(=O)N[C@H]2CCOC2=O)cc1 [B28] | 3% | 0% | 16% | 57% | 0% | 26% | – | – | – | – | – | – | – | – | – | – |
| O=C(Cc1ccc([N+](=O)[O-])cc1)NC1CCOC1=O (centres unmarked) [B16, 4-nitro PHL] | – | – | – | – | – | – | – | – | ~25% | 0% | 27% | 47% | 2250 nM | 1% | ~90% | – |
| O=C(Cc1ccc(C(F)(F)F)cc1)N[C@H]1CCOC1=O [B23, 4-trifluoromethyl PHL] | – | – | – | 78% | – | – | – | – | 3% | 0% | 26% | – | – | 2% | 92% | 610 nM |
| O=C(CCCc1c[nH]c2ccccc12)N[C@@H]1CCOC1=O [A29] | 2% | 0% | 13% | 29% | 0% | 9% | – | – | – | – | – | – | – | – | – | – |
